Assay results from PubChem BioAssay (NCI).
Several values for one entry are separate records, joined by “and”; a condition that tells them apart may be missing. Equal entries are not always repeated.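 Five compound concentrations were applied to cells in 96-well plates for 48 hours; endpoints were derived by simple linear interpolation of the resulting dose-response curve. The concentration for 50% growth inhibition is given as GI50. The concentration for full growth arrest is given as TGI.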

Tests used:
Test in all cases: NCI anticancer screen, dose series, 48 h
SF-268 CNS = system: SF-268 CNS
SNB-75 CNS = system: SNB-75 CNS
T-47D breast = system: T-47D breast
NCI-H460 lung = system: NCI-H460 lung
HCT-15 colon = system: HCT-15 colon
OVCAR-3 ovarian = system: OVCAR-3 ovarian
UO-31 renal = system: UO-31 renal
MOLT-4 leukemia = system: MOLT-4 leukemia
EKVX NSCLC = system: EKVX NSCLC
K-562 leukemia = system: K-562 leukemia

Row | Compound | GI50 (SF-268 CNS) | GI50 (SNB-75 CNS) | TGI (SNB-75 CNS) | GI50 (T-47D breast) | TGI (T-47D breast) | GI50 (NCI-H460 lung) | TGI (NCI-H460 lung) | GI50 (HCT-15 colon) | TGI (HCT-15 colon) | GI50 (OVCAR-3 ovarian) | TGI (OVCAR-3 ovarian) | GI50 (UO-31 renal) | TGI (UO-31 renal) | GI50 (MOLT-4 leukemia) | TGI (MOLT-4 leukemia) | GI50 (EKVX NSCLC) | GI50 (K-562 leukemia) | TGI (SF-268 CNS) | TGI (EKVX NSCLC) | TGI (K-562 leukemia)
1 | O=C(Nc1ccc([N+](=O)[O-])cc1Cl)c1cc(Cl)ccc1O | 0.152 µM and 0.317 µM | 0.155 µM and 0.211 µM | 2.49 µM and 0.864 µM | 0.107 µM and 0.188 µM | 0.361 µM and 0.836 µM | 0.134 µM and 0.213 µM | 5.98 µM | 0.154 µM and 0.26 µM | 3.2 µM | 0.141 µM and 0.283 µM | 2.59 µM and 21.5 µM | 0.129 µM and 0.254 µM | 0.437 µM and 1.01 µM | 0.121 µM and 0.273 µM | 0.374 µM and 1.03 µM | 0.16 µM and 0.315 µM | 0.12 µM and 0.21 µM |  |  | 
2 | c1ccc2c(c1)CCCc1nnc3nc4ccccc4n3c1-2 | 5.73 µM | 23 µM | > 100 µM | 5.49 µM | > 100 µM | 3.65 µM | 16.6 µM | 3.27 µM | > 100 µM | 4.37 µM | 37.8 µM | 3.08 µM | 30.5 µM | 4.49 µM | > 100 µM | 4.02 µM | 3.87 µM | > 100 µM | > 100 µM | > 100 µM
3 | COc1ccc2c(c1)C(=O)CC(C(N)=O)C2 (centres undefined) |  |  | > 100 µM |  | > 100 µM |  | > 100 µM |  | > 100 µM |  | > 100 µM |  | > 100 µM |  | > 100 µM |  |  | > 100 µM | > 100 µM | > 100 µM
4 | C/C=C1/CN2CCC34c5ccccc5N5C(=O)C(C6CC78c9ccccc9N9C(=O)C=CC(C%10CC7N6C/C%10=C/C)C98)=CC(C1CC23)C54 (centres undefined) | 4.3 µM |  | 14.7 µM |  | 33.6 µM | 9.87 µM | 15.9 µM and 40 µM | 2.83 µM | 14.6 µM and 10.3 µM | 10.7 µM | 16.5 µM and 23.5 µM | 5.87 µM | 9.81 µM and 20.2 µM |  | 5.56 µM | 12.5 µM |  | 17.7 µM and 17.2 µM | 14.5 µM and 26.4 µM | 50 µM
5 | Nc1[nH]c(=S)[nH]c(=O)c1N=Nc1c(Br)cc(S(N)(=O)=O)cc1Br |  |  | > 100 µM |  | > 100 µM |  | > 100 µM |  | > 100 µM |  | > 100 µM |  | > 100 µM |  | > 100 µM |  |  | > 100 µM | > 100 µM | > 100 µM
6 | Cn1cc(-c2[nH]c3cc(NC(=O)[C@H](N)C4CCCCC4)cc4c3c2C=NNC4=O)cn1 | 0.305 µM and 0.324 µM | 0.339 µM and 0.311 µM | 1.88 µM and 1.84 µM | 15 µM | 31.3 µM | 4.11 µM and 3.59 µM | 19.9 µM and > 10 µM | 12 µM and 5.1 µM | > 72 µM | 0.229 µM and 0.144 µM | 3.02 µM and 3.73 µM | 2.54 µM and 2.35 µM | 9.07 µM and > 10 µM | 0.287 µM and 0.334 µM | 0.797 µM and > 6.55 µM | 6.83 µM and 5.99 µM | 0.193 µM and 0.205 µM | 13.1 µM and > 10 µM | 21.8 µM and > 10 µM | 1.78 µM and > 10 µM
7 | CNC(=O)c1cc(Oc2ccc(NC(=O)Nc3ccc(Cl)c(C(F)(F)F)c3)cc2)ccn1 | 4.15 µM and 2.73 µM and 2.63 µM | 1.86 µM and 2.65 µM and 2.73 µM | > 10 µM and 8.98 µM and 8.78 µM | 1.82 µM and 2.31 µM and 1.87 µM | > 10 µM and 7.43 µM and 7.85 µM | 3.17 µM and 2.88 µM and 2.44 µM | > 10 µM and 10.2 µM and 7.09 µM | 2.76 µM and 3.18 µM and 2.65 µM | > 10 µM and 12.3 µM and 9.84 µM |  |  | 3.08 µM and 3.03 µM and 2.57 µM | > 10 µM and 8.18 µM and 6.2 µM | 2.38 µM and 3.15 µM and 2.87 µM |  | 3.24 µM and 2.51 µM and 2.67 µM | 1.7 µM and 2.5 µM and 2.53 µM | > 10 µM and 10.8 µM and 7.88 µM | > 10 µM and 7.86 µM and 13 µM | > 100 µM
8 | O=C(Nc1ccc(-c2cn3ccccc3n2)cc1)c1cc(Br)ccc1O |  |  | > 100 µM |  | > 100 µM |  | > 100 µM |  | > 100 µM |  | > 100 µM |  |  |  | > 100 µM |  |  | > 100 µM | > 100 µM | > 100 µM
9 | CS(=O)(=O)Nc1cc(-c2ccc3ncnc(Nc4ccc(OCc5ccccn5)c(Cl)c4)c3c2)cnc1Cl | 0.429 µM | 0.0438 µM | 0.797 µM | 0.0258 µM | 0.217 µM | 0.502 µM | > 100 µM | 1.13 µM | > 42 µM | 0.217 µM | 1.41 µM | 0.337 µM | 3.86 µM | 0.223 µM | 0.75 µM | 0.313 µM | 1.29 µM | > 100 µM | 3.46 µM | > 100 µM
10 | O=C1NC(=O)/C(=C/c2ccc3nccc(-c4ccncc4)c3c2)S1 | 0.346 µM | 0.0518 µM | 0.448 µM | 0.0497 µM | 0.432 µM | 0.487 µM | > 10 µM | 0.292 µM | > 5.08 µM | 0.252 µM | 2.07 µM | 0.14 µM | 1.05 µM | 0.645 µM | 9.91 µM | 0.407 µM | 1.89 µM | 5.15 µM | 3.67 µM | > 10 µM
11 | COc1cccc(/C=C/C(=O)c2cc3c(N)c(C(=O)Nc4ccccc4)sc3nc2C)c1 | 1.47 µM | 0.889 µM | > 50 µM | 1.24 µM | 3.89 µM | 1.1 µM | 2.47 µM | 1.16 µM | 3.37 µM | 1.18 µM | 3.32 µM | 0.842 µM | 1.62 µM | 1.59 µM | > 50 µM | 5.8 µM | 1.47 µM | 5.82 µM | 13.1 µM | > 50 µM
12 | COc1ccc(CC2OC3(CCCCC3)CC3CCCCN32)cc1 (centres undefined) |  |  | > 100 µM |  | > 100 µM |  | > 100 µM |  | > 100 µM |  | > 100 µM |  | > 100 µM |  | > 100 µM |  |  | > 100 µM | > 100 µM | > 100 µM
13 | CCN1C(=O)N(CC)C2C1NN=c1s/c(=C\c3ccc(Br)cc3)c(=O)n12 (centres undefined) | 0.852 µM | 0.0808 µM | > 100 µM | 5.11 µM | > 100 µM | 0.119 µM | > 100 µM | 0.0598 µM | > 100 µM | 0.102 µM | > 100 µM | 1.51 µM | > 100 µM | 0.392 µM | > 100 µM | 0.502 µM | 0.0453 µM | > 100 µM | > 100 µM | > 100 µM
14 | NS(=O)(=O)c1ccc(NC(=O)Nc2cccc3ccccc23)cc1 |  |  | 57.7 µM |  | > 100 µM |  | > 100 µM |  | > 100 µM |  | > 100 µM |  | 31.8 µM |  | > 100 µM |  |  | 39.3 µM | 80.8 µM | > 100 µM
15 | COC(=O)C1(N2CCOCC2)CCC([C@@H](c2ccccc2)C(C)[N+](=O)[O-])C1 (some centres undefined) |  |  | > 100 µM |  | 9.62 µM |  | > 100 µM |  | > 100 µM |  | 71.3 µM |  | > 100 µM |  | > 100 µM |  |  | > 100 µM | > 100 µM | > 100 µM
